This passage reports Kd results from article PMC9190012, “Heparin activation of protein Z-dependent protease inhibitor (ZPI) allosterically blocks protein Z activation through an extended heparin-binding site” (The Journal of Biological Chemistry, 2022).

Read-outs that look alike come from different tables or passages of the source.

For one assay, the target named is T1, NBD-ZPI (Homo sapiens, UniProt Q9UK55, C190A/C285S/K260C).
T1 construct: made in house; host or cells: Escherichia coli
T1 sequence (Q9UK55 22-444 C190A/K260C/C285S): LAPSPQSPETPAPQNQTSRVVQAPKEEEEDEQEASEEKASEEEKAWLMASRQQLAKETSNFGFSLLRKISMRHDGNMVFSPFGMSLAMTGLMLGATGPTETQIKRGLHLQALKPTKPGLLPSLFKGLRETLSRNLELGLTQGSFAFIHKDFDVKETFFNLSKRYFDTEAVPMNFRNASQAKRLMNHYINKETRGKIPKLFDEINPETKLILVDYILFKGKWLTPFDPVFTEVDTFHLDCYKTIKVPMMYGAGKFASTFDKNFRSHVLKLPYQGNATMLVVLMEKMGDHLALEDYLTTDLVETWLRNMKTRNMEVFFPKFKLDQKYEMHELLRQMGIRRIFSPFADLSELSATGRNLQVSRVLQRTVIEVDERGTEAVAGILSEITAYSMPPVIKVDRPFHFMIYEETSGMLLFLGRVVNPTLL
Nature of the assay: Competitive binding titrations of NBD-ZPI–PZ complex with heparins (quenching of NBD fluorescence). The note with it: competitive titration of NBD-ZPI–PZ complex (50 nM ZPI/62 nM PZ), 0.1 M NaCl buffer; read-out: ZPI–heparin KD,H. The method, then:
Equilibrium binding of heparin to NBD-ZPI was measured by competitive binding titrations in which heparins of various lengths were titrated into NBD-ZPI (50 nM) complexed with a molar excess of PZ (62 nM) in a lower ionic strength buffer (0.1 M NaCl) and heparin binding followed by the quenching of NBD-ZPI–PZ complex fluorescence. Titrations were computer fit by the competitive binding equation, ΔFmax−ΔFobs/ΔFmax=Fobs−F∞/F0−F∞=[ZPI]0+[PZ]0+KD,PZ×(1+[H]0/KD,H)−([ZPI]0+[PZ]0+KD,PZ×(1+[H]0/KD,H))^2−4×[ZPI]0×[PZ]0/[ZPI]0+[PZ]0+KD,PZ−([ZPI]0+[PZ]0+KD,PZ)^2−4×[ZPI]0×[PZ]0
in which ΔFobs is the observed change in fluorescence of PZ complexed and uncomplexed NBD-ZPI before (Fo) and after heparin addition (Fobs), ΔFmax is the maximal fluorescence change upon reaching the end point fluorescence of NBD-ZPI after complete dissociation of PZ (F∞), [ZPI]o, [PZ]o, and [H]o are total concentrations of NBD-ZPI, PZ, and heparin, respectively, and KD,PZ and KD,H are dissociation constants for the NBD-ZPI–PZ and the NBD-ZPI–heparin interactions, respectively. […] In fitting data to the aforementioned equation, KD,PZ was fixed at the value determined by titration of NBD-ZPI with PZ in the absence of heparin, and KD,H was the fitted parameter.

The next assay concerns the target T2, NBD-ZPI–PZ interactions (Homo sapiens, UniProt Q9UK55, C190A/C285S/K260C).
T2 construct: made in house; host or cells: Escherichia coli
T2 sequence (Q9UK55 22-444 C190A/K260C/C285S): T1 sequence (Q9UK55 22-444 C190A/K260C/C285S)
Nature of the assay: Titrations of NBD-ZPI with PZ in absence and presence of fixed levels of heparin. Format: binding. Particulars: read-out: ZPI–heparin KD,H (predicted). Here is the method: The effect of heparin on PZ binding to ZPI was measured by titrations of 50 nM NBD-ZPI with PZ in the absence and presence of different fixed levels of heparins of various lengths in the higher ionic strength buffer used for emission spectra. Titrations were monitored from the enhancement of NBD-ZPI fluorescence that signals PZ binding. These titrations were fit by the quadratic binding equation, ΔFobs/F0=ΔFmax/F0×[ZPI]0+[PZ]0+KD,PZapp−([ZPI]0+[PZ]0+KD,PZapp)^2−4×[ZPI]0×[PZ]0/2×[ZPI]0 where ΔFobs/Fo and ΔFmax/Fo are the observed and maximal fluorescence changes after addition of PZ expressed relative to the initial free NBD-ZPI fluorescence, respectively, and KD,PZapp = KD,PZ × (1 + [H]o/KD,H) is the apparent dissociation constant for the ZPI–PZ interaction in the absence or presence of heparin. The fitted parameters were KD,PZapp and ΔFmax/Fo.

`CO[C@H]1O[C@H](COS(=O)(=O)O)[C@@H](O[C@@H]2O[C@@H](C(=O)O)[C@@H](O[C@H]3O[C@H](COS(=O)(=O)O)[C@@H](O[C@@H]4O[C@H](C(=O)O)[C@@H](O[C@H]5O[C@H](COS(=O)(=O)O)[C@@H](O)[C@H](O)[C@H]5NS(=O)(=O)O)[C@H](O)[C@H]4O)[C@H](OS(=O)(=O)O)[C@H]3NS(=O)(=O)O)[C@H](O)[C@H]2OS(=O)(=O)O)[C@H](O)[C@H]1NS(=O)(=O)O` [H5, fondaparinux]: the Kd on NBD-ZPI was 32.4 ± 1.9 µM; on NBD-ZPI–PZ interactions (calculated from KD,PZapp at 211 μM heparin), 53 µM; at NBD-ZPI–PZ interactions (calculated from KD,PZapp at 423 μM heparin), 44 µM.

In general, Kd refers to the free concentration of one partner at which half of the binding sites on the other are occupied at equilibrium, for simple one-to-one binding.
